For experiment [1], the target named is T1, DGKζ (hDGKzeta(1-928)-N-His) (Homo sapiens, UniProt Q13574).
T1 construct: hDGKzeta(1-928)-N-His; His (N); made in house; host or cells: Sf21 insect cells (baculovirus)
As to the kind of experiment: In vitro DGK inhibition assay, DGKzeta ADP Glo (in house). In kind it is biochemical. As to conditions: 2 nM DGKζ, 50 μM ATP, 125 uM DLG in liposomes, 1 hour reaction. Summed up:
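Full-length His-tagged human DGKα (4 nM) or DGKζ (2 nM), expressed in Sf21 cells, phosphorylated 125 µM DLG in PS/PC liposomes with ATP at 25 µM (α) or 50 µM (ζ) for 1 h. ADP was measured by ADP-Glo luminescence. Compounds were tested as 11-point 1:3 series in 2% DMSO.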

Another experiment has as its system primary human T-cells. In words: IL2 secretion measurements (24 h, CD3-stimulated T-cells, PBS counter screen). In kind it is cell-based. The following applies: for Emax IL2 (% activation): CD3 condition, normalised to DMSO (neutral) and 20 μM reference compound A1 = 100%; for EC50: Homo sapiens, T-cell, CD3-stimulated primary human T-cells, IL2 secretion, fitted sigmoidal curve, read-out: Tcell IL2 CD3 EC50. Summed up:
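Expanded primary human T-cells (100k/well) were plated on anti-CD3-coated or PBS-only plates with compound in a 5–6 point dose response (top 20 or 10 μM final, 3.333-fold, 0.2% DMSO). IL-2 in 24 h supernatants was quantified by ProQuantum immunoassay or ELISA. Values were normalized to DMSO and 20 μM reference compound A1 (100%), giving EC50 and Emax.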

Molecules are shown by their SMILES.

The record followed here is patent publication US20260138976A1 (Hoffmann-La Roche Inc., priority 2022, published 2026).

T1 sequence (Q13574 whole entry): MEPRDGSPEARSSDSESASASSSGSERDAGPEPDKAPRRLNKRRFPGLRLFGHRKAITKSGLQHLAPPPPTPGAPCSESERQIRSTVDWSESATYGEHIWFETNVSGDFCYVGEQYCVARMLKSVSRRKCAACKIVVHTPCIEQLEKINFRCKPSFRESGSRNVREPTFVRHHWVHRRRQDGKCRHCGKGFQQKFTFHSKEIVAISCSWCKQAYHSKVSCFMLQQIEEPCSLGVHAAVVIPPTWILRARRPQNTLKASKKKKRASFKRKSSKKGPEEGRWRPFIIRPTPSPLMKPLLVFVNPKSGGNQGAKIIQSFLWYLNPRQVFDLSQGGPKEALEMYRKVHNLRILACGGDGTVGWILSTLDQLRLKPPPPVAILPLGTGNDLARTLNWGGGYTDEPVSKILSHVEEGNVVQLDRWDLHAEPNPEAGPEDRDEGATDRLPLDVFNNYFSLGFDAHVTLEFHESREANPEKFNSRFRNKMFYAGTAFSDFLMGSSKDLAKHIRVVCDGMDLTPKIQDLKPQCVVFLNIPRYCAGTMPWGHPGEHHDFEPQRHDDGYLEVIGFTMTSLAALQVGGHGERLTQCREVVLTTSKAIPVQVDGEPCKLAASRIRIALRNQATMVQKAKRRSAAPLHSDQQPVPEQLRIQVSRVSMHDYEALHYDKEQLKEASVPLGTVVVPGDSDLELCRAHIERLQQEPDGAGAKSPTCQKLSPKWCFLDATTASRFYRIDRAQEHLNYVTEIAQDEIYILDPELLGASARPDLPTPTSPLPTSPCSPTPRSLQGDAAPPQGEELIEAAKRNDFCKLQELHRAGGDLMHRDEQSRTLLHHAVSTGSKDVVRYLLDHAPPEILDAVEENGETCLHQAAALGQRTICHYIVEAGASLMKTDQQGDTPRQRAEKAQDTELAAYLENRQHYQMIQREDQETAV

The molecule `Cn1ccc(-c2ccc(CN3C(=O)[C@@H](N)CS(=O)(=O)c4cc(F)c(-c5nnc(C(C)(C)C)o5)cc43)cc2)n1` [Example 1, (3R)-3-amino-7-(5-tert-butyl-1,3,4-oxadiazol-2-yl)-8-fluoro-5-[[4-(1-methylpyrazol-3-yl)phenyl]methyl]-1,1-dioxo-2,3-dihydro-1λ^6,5-benzothiazepin-4-one] returned a 50% inhibitory concentration (IC50) in experiment [1] of 488 nM. In the experiment on primary human T-cells, the “Emax IL2 (% activation)” value stood at 91 % activation and the EC50 is 1310 nM.
In the same order, the values of `Cc1noc(-c2ccc(CN3C(=O)[C@@H](N)CS(=O)(=O)c4cc(F)c(-c5nnc(C(C)(C)C)o5)cc43)cc2)n1` [Example 2] are 128 nM, 168 % activation and 891 nM.
With `CC(C)Nc1nnc(-c2cc3c(cc2F)S(=O)(=O)C[C@H](N)C(=O)N3Cc2ccc(-c3noc(C(F)(F)F)n3)cc2)o1` [Example 6, (3R)-3-amino-8-fluoro-7-[5-(isopropylamino)-1,3,4-oxadiazol-2-yl]-1,1-dioxo-5-[[4-[5-(trifluoromethyl)-1,2,4-oxadiazol-3-yl]phenyl]methyl]-2,3-dihydro-1λ^6,5-benzothiazepin-4-one], in experiment [1], the IC50 was 696 nM. In addition, in the experiment on primary human T-cells, the “Emax IL2 (% activation)” value was determined as 212 % activation and the EC50 worked out at 1170 nM.
In the same order, the values of `CC(C)(C)c1nc(-c2cc3c(cc2F)S(=O)(=O)C[C@H](N)C(=O)N3Cc2ccc(-c3ccc(CO)cc3)nc2)no1` [Example 7, (3R)-3-amino-7-(5-tert-butyl-1,2,4-oxadiazol-3-yl)-8-fluoro-5-[[6-[4-(hydroxymethyl)phenyl]-3-pyridyl]methyl]-1,1-dioxo-2,3-dihydro-1λ^6,5-benzothiazepin-4-one] are 1400 nM, 38 % activation and more than 10000 nM.
In experiment [1], `N[C@H]1CS(=O)(=O)c2cc(F)c(-c3noc(N4CCCC4)n3)cc2N(Cc2ccc(-c3noc(C(F)(F)F)n3)nc2)C1=O` [Example 15, (3R)-3-amino-8-fluoro-1,1-dioxo-7-(5-pyrrolidin-1-yl-1,2,4-oxadiazol-3-yl)-5-[[6-[5-(trifluoromethyl)-1,2,4-oxadiazol-3-yl]-3-pyridyl]methyl]-2,3-dihydro-1λ^6,5-benzothiazepin-4-one] had an IC50 of 466 nM. Besides, in the experiment on primary human T-cells, the “Emax IL2 (% activation)” value is listed as 39 % activation and the EC50 was more than 10000 nM.
In the same order, the values of `Cn1ccc(-c2ccc(CN3C(=O)[C@@H](N)CS(=O)(=O)c4ccc(-c5nnc(C(C)(C)C)o5)cc43)cc2)n1` [Example 21] are 2310 nM, 53 % activation and 8010 nM.
In the same order, the values of `CC(C)(C)c1nnc(-c2ccc3c(c2)N(Cc2ccc(-c4noc(C(F)(F)F)n4)cc2)C(=O)[C@@H](N)CS3(=O)=O)o1` [Example 23, (3R)-3-amino-7-(5-tert-butyl-1,3,4-oxadiazol-2-yl)-1,1-dioxo-5-[[4-[5-(trifluoromethyl)-1,2,4-oxadiazol-3-yl]phenyl]methyl]-2,3-dihydro-1λ^6,5-benzothiazepin-4-one] are 523 nM, 120 % activation and 769 nM.
For `CC(C)(C)c1nnc(-c2ccc3c(c2)N(Cc2ccc(-n4cc(C(F)(F)F)cn4)cc2)C(=O)[C@@H](N)CS3(=O)=O)o1` [Example 25, (3R)-3-amino-7-(5-tert-butyl-1,3,4-oxadiazol-2-yl)-1,1-dioxo-5-[[4-[4-(trifluoromethyl)pyrazol-1-yl]phenyl]methyl]-2,3-dihydro-1λ^6,5-benzothiazepin-4-one], the IC50 in experiment [1] turned out to be 1270 nM. In addition, in the experiment on primary human T-cells, the “Emax IL2 (% activation)” value was determined as 137 % activation and the half-maximal effective concentration (EC50) is 609 nM.
In the same order, the values of `CC(C)(C)c1nnc(-c2ccc3c(c2)N(Cc2ccc(-n4ccc(C(F)(F)F)n4)cc2)C(=O)[C@@H](N)CS3(=O)=O)o1` [Example 27] are 758 nM, 160 % activation and 476 nM.
In turn, `CC(C)(C)c1nnc(-c2ccc3c(c2)N(Cc2ccc(-n4cnc(C(F)(F)F)c4)cc2)C(=O)[C@@H](N)CS3(=O)=O)o1` [Example 28, (3R)-3-amino-7-(5-tert-butyl-1,3,4-oxadiazol-2-yl)-1,1-dioxo-5-[[4-[4-(trifluoromethyl)imidazol-1-yl]phenyl]methyl]-2,3-dihydro-1λ^6,5-benzothiazepin-4-one] displayed an IC50 in experiment [1] of 4260 nM. In addition, in the experiment on primary human T-cells, the “Emax IL2 (% activation)” value is given as 81 % activation and the 50% effective concentration (EC50) amounted to 5010 nM.
The corresponding values for `CC(N)(c1nnc(-c2ccc3c(c2)N(Cc2ccc(-c4noc(CC(F)(F)F)n4)cc2)C(=O)[C@@H](N)CS3(=O)=O)o1)C(F)(F)F` (stereo partly drawn) [Example 33, (3R)-3-amino-7-[5-(1-amino-2,2,2-trifluoro-1-methyl-ethyl)-1,3,4-oxadiazol-2-yl]-1,1-dioxo-5-[[4-[5-(2,2,2-trifluoroethyl)-1,2,4-oxadiazol-3-yl]phenyl]methyl]-2,3-dihydro-1λ^6,5-benzothiazepin-4-one] are 2640 nM, 24 % activation and more than 10000 nM.
In the same order, the values of `CC(C)(C#N)c1nnc(-c2ccc3c(c2)N(Cc2ccc(-c4ccc(C(F)(F)F)cc4)cc2)C(=O)[C@@H](N)CS3(=O)=O)o1` [Example 46] are 1260 nM, 263 % activation and 331 nM.
Regarding `CC1(c2nnc(-c3ccc4c(c3)N(Cc3ccc(-c5ccc(C(F)(F)F)cc5)cc3)C(=O)[C@@H](N)CS4(=O)=O)o2)CCO1` (stereo partly drawn) [Example 48, (3R)-3-amino-7-[5-(2-methyloxetan-2-yl)-1,3,4-oxadiazol-2-yl]-1,1-dioxo-5-[[4-[4-(trifluoromethyl)phenyl]phenyl]methyl]-2,3-dihydro-1lambda6,5-benzothiazepin-4-one], in experiment [1], 1590 nM corresponded to half-maximal inhibition (IC50). In addition, in the experiment with primary human T-cells, the “Emax IL2 (% activation)” value is 114 % activation and the half-maximal effective concentration (EC50) was 984 nM.
In the same order, the values of `N[C@H]1CS(=O)(=O)c2ccc(-c3nnc(C4(CO)CCCO4)o3)cc2N(Cc2ccc(-c3ccc(C(F)(F)F)cc3)cc2)C1=O` (stereo partly drawn) [Example 55] are 20300 nM, 74 % activation and 3110 nM.
In the same order, the values of `COC(=O)N1CC2CC(c3nnc(-c4ccc5c(c4)N(Cc4ccc(-c6ccc(OC)cc6)cc4)C(=O)[C@@H](N)CS5(=O)=O)o3)(C2)C1` [Example 59, methyl 1-[5-[(3R)-3-amino-5-[[4-(4-methoxyphenyl)phenyl]methyl]-1,1,4-trioxo-2,3-dihydro-1λ^6,5-benzothiazepin-7-yl]-1,3,4-oxadiazol-2-yl]-3-azabicyclo[3.1.1]heptane-3-carboxylate] are 1140 nM, 175 % activation and 596 nM.
The corresponding values for `COC(=O)N1CC2CC(c3nnc(-c4ccc5c(c4)N(Cc4ccc(-c6ccc(C(F)(F)F)cc6)cc4)C(=O)[C@@H](N)CS5(=O)=O)o3)(C2)C1` [Example 60, methyl 1-[5-[(3R)-3-amino-1,1,4-trioxo-5-[[4-[4-(trifluoromethyl)phenyl]phenyl]methyl]-2,3-dihydro-1λ^6,5-benzothiazepin-7-yl]-1,3,4-oxadiazol-2-yl]-3-azabicyclo[3.1.1]heptane-3-carboxylate] are 3080 nM, 163 % activation and 424 nM.
`COc1ccc(-c2ccc(CN3C(=O)[C@@H](N)CS(=O)(=O)c4ccc(-c5nnc(C6(CO)CCCO6)o5)cc43)cc2)cc1` (stereo partly drawn) [Example 63, (3R)-3-amino-7-[5-[2-(hydroxymethyl)tetrahydrofuran-2-yl]-1,3,4-oxadiazol-2-yl]-5-[[4-(4-methoxyphenyl)phenyl]methyl]-1,1-dioxo-2,3-dihydro-1λ^6,5-benzothiazepin-4-one] came in with an IC50 in experiment [1] of 1720 nM. Moreover, in the experiment on primary human T-cells, the “Emax IL2 (% activation)” value stood at 78 % activation and the half-maximal effective concentration (EC50) was 2410 nM.
In the same order, the values of `COC(F)(c1nnc(-c2ccc3c(c2)N(Cc2ccc(-c4nnc(C5CC5)o4)cc2)C(=O)[C@@H](N)CS3(=O)=O)o1)C(F)(F)F` (stereo partly drawn) [Example 65] are 6440 nM, 92 % activation and 1420 nM.
`N[C@H]1CS(=O)(=O)c2ccc(-c3nnc(N4CCC(F)(F)CC4)o3)cc2N(Cc2ccc(-c3nnc(C(F)(F)F)o3)cc2)C1=O` [Example 71, (3R)-3-amino-7-[5-(4,4-difluoro-1-piperidyl)-1,3,4-oxadiazol-2-yl]-1,1-dioxo-5-[[4-[5-(trifluoromethyl)-1,3,4-oxadiazol-2-yl]phenyl]methyl]-2,3-dihydro-1λ^6,5-benzothiazepin-4-one] gave a half-inhibitory concentration (IC50) in experiment [1] of 895 nM. For the same molecule, in the experiment on primary human T-cells, the “Emax IL2 (% activation)” value came to 111 % activation and the EC50 came out at 3260 nM.
Consider `CC1(Nc2nnc(-c3ccc4c(c3)N(Cc3ccc(-c5noc(C(F)(F)F)n5)cc3)C(=O)[C@@H](N)CS4(=O)=O)o2)CC(F)(F)C1` [Example 72, (3R)-3-amino-7-[5-[(3,3-difluoro-1-methyl-cyclobutyl)amino]-1,3,4-oxadiazol-2-yl]-1,1-dioxo-5-[[4-[5-(trifluoromethyl)-1,2,4-oxadiazol-3-yl]phenyl]methyl]-2,3-dihydro-1λ^6,5-benzothiazepin-4-one], for which 20900 nM corresponded to half-maximal inhibition in experiment [1] (IC50). In the experiment with primary human T-cells, the “Emax IL2 (% activation)” value is 238 % activation and the EC50 worked out at 3280 nM.
